Source: patent US5648474A, “Crystalline etoposide 4'-phosphate diethanolate” (Bristol-Myers Squibb, priority 1991, dated 1997)
Several values for one entry are separate records, joined by “and”; a condition that tells them apart may be missing. Equal entries are not always repeated.

How the values were obtained:
[1] = Stability at 50° C., potency by HPLC (% EP remaining); type: physicochemical; details: for % EP remaining, 2 wk / % EP remaining, 4 wk / % EP remaining, 8 wk: sealed glass vials, control: desiccated at 4° C. (100% assumed potency); for % EP remaining, 2 wk: 20160 min; for % EP remaining, 4 wk: 40320 min; for % EP remaining, 8 wk: 80640 min
Protocol: a. Crystalline etoposide 4'-phosphate diethanolate prepared as described above. b. Crystalline etoposide 4'-phosphate (unsolvated) was prepared by the following procedure. Etoposide 4'-phosphate (300 mg) in ethanol (175 ml) was heated with stirring at 70° C. to obtain a clear solution. The solution was filtered and the filtrate heated at 70° C. until the volume was reduced to ca. 34 ml. A portion of the solution (ca. 17 ml) was placed in a vial, and seeded with a small amount of needle-shaped etoposide 4'-phosphate crystals previously obtained. The solution was placed in freezer at -12° C. for 4 days and the resulting needle-shaped crystals were harvested as white fluffy material. NMR analysis of this material indicated ethanol content of ca. 1.6% w/w. […]
c. amorphous disodium etoposide 4'-phosphate prepared as described in U.S. Pat. No. 4,904,768. d. amorphous etoposide 4'-phosphate was obtained by dissolving crystalline etoposide 4'-phosphate diethanolate (125 mg) in methanol (50 ml), evaporating the solution to dryness on a rotary evaporator, and drying the residue at 25° C. under vacuum for 1 hour.
Accurately weighed samples of the test materials were placed in Type I flint glass vials and sealed with Teflon-coated stoppers and aluminum caps. The vials were stored at 50° C. The potency of these samples was determined at 2,4 and 8 weeks by HPLC. Samples stored desiccated at 4° C. served as controls (100% assumed potency).
Column: Jones Apex Octadecyl, 5μ, 150×4.6 mm
Mobile phase A: 0.02M ammonium phosphate (mono-basic) in Milli-Q water (pH ~4.5): Acetonitrile (85:15) Mobile phase B: Acetonitrile
Gradient: 0-3 minutes isocratic at 0% B; 3-18 mins--linear gradient 0 to 30% B; 18-23 mins--isocratic at 30% B; 23-25 mins--linear gradient 30 to 0% B; 25-30 mins--re-equilibrate at 100% A (i.e. 0% B) […]
Sample diluent: Mobile phase A
Inj. volume: 20 microliters
Retention times: Etoposide 4'-phosphate--5.4 mins; lignan P--11.5 mins; etoposide--17.5 mins Peak area for etoposide 4'-phosphate was linearly correlated with concentration in the range 0.05-0.20 mg/mL (correlation coefficient=0.9999).
The results of the above-described stability test are given in the following Table in which the term "EP" represents etoposide 4'-phosphate.

[2] = cited from earlier work
[3] = previously disclosed fluffy, amorphous forms; cited from earlier work
[4] = relative to etoposide; cited from earlier work

Structure (SMILES) | % EP remaining, 2 wk [1] [%] | % EP remaining, 4 wk [1] | % EP remaining, 8 wk [1] | stability versus other forms of etoposide 4'-phosphate [1] | loss of potency over a 8-week period ([1]; 8-week period) | water solubility [2] | decomposition upon storage [3] | activity in in vivo antitumor assays [4]
COc1cc([C@@H]2c3cc4c(cc3[C@@H](O[C@@H]3O[C@@H]5CO[C@@H](C)O[C@H]5[C@H](O)[C@H]3O)[C@H]3COC(=O)[C@H]23)OCO4)cc(OC)c1OP(=O)(O)O [Amorphous EP, etoposide 4'-phosphate] | 65.8 | 54.1% | 46.7% | – | – | – | – | –
COc1cc([C@@H]2c3cc4c(cc3[C@@H](O[C@@H]3O[C@@H]5CO[C@@H](C)O[C@H]5[C@H](O)[C@H]3O)[C@H]3COC(=O)[C@H]23)OCO4)cc(OC)c1OP(=O)(O)O [Crystalline EP 2EtOH, etoposide 4'-phosphate diethanolate] | 100 | 98.4% and 100% | 97.5% and 99.3% | superior stability | very little loss of potency | – | – | –
COc1cc([C@@H]2c3cc4c(cc3[C@@H](O[C@@H]3O[C@@H]5CO[C@@H](C)O[C@H]5[C@H](O)[C@H]3O)[C@H]3COC(=O)[C@H]23)OCO4)cc(OC)c1OP(=O)(O)O [Crystalline EP, etoposide 4'-phosphate] | 93.3 | 87.9% | 85.1% | – | – | – | – | –
COc1cc([C@@H]2c3cc4c(cc3[C@@H](O[C@@H]3O[C@@H]5CO[C@@H](C)O[C@H]5[C@H](O)[C@H]3O)[C@H]3COC(=O)[C@H]23)OCO4)cc(OC)c1OP(=O)(O)O [Amorphous EP 2Na, disodium etoposide 4'-phosphate] | 85.5 | 69.3% | 61.6% | – | – | ≥ 100 mg/mL | – | –
COc1cc([C@@H]2c3cc4c(cc3[C@@H](O[C@@H]3O[C@@H]5CO[C@@H](C)O[C@H]5[C@H](O)[C@H]3O)[C@H]3COC(=O)[C@H]23)OCO4)cc(OC)c1OP(=O)(O)O [Etoposide 4'-phosphate (I), Etoposide 4'-phosphate] | – | – | – | – | – | ≥ 100 mg/mL | tend to decompose upon storage | as active as etoposide
COc1cc([C@@H]2c3cc4c(cc3[C@@H](O[C@@H]3O[C@@H]5CO[C@@H](C)O[C@H]5[C@H](O)[C@H]3O)[C@H]3COC(=O)[C@H]23)OCO4)cc(OC)c1O [Etoposide] | – | – | – | – | – | about 0.1 mg/ml | – | –
